Read-outs that look alike come from different tables or passages of the source. Bounds are passed on as bounds.

Data on 33 molecules can be found in US4061645A, “2-Trichloromethyl-5-methylsulfinyl-1,3,4-thiadiazole” (Schering Aktiengesellschaft, priority 1972, dated 1977).

Test [1] concerns Rhizoctonia solani. In words: Limit concentration of soil-fungicidal effectiveness, Rhizoctonia solani, infested soil seeded with peas (Example 1). Type of test: in vivo. The following applies: soil, 480 h, read-out: Limit concentration of the fungicidal effectiveness. On the procedure: Limit concentrations of the soil-fungicidal effectiveness at homogeneous mixture of the products with the infested soil. Basic condition in the evaluation are a sound root formation without fungus necroses and germination of the seed of at least 90% compared with the result obtained in steamed soil. Per concentration there were seeded 25 grains of peas of the variety "Miracle of Kelvedon" (marrow pea) without a waiting period. The cultivation time in the tests was 20 to 23 days at a temperature of 22°-25° C. Four commercial products were included in the test series.
Rhizoctania solani: -- Steamed compost soil was inoculated with mycelium of Rhizoctonia solani.

The subject of test [2] is Stemphylium ilicis. The test can be described thus: Agar test (Example 7), Stemphylium. The following applies: 10 ppm; 5 days at 22° C; control 100. It counts as cell-based. On the procedure:
(§1) The fungicidal action of the agents according to the invention was tested in artificial nutrient media against plant-pathogenic fungi in Petri dishes (agar test). The procedure was to sterilize the medium consisting of 2% malt extract and 1.5% agar-agar powder. Before the solidification of the medium, the active substances were added to it, mixing thoroughly, so that the medium received 10 parts of active substance per million (ppm). After the solidification of the medium, the latter was inoculated with a platinum dropper which contained 100 spores each of the fungi to be tested, and after five days at 22° C, an evaluation was made by measuring the diameter of the colonies in mm.

For test [3], the system named is Asperqilus niger. In words: Agar test (Example 7), Aspergillus. It counts as cell-based. The following applies: 10 ppm; 5 days at 22° C; control 100. How it is done:
as §1

Test [4] deals with Botrytis cinerea. The test can be described thus: Agar test (Example 7), Botrytis. It counts as cell-based. The following applies: 10 ppm; 5 days at 22° C; control 100. How it is done: as §1
For test [5], the system named is Helminthosporium sativum. In words: Agar test (Example 7), Helminthosporium. Type of test: cell-based. The following applies: 10 ppm; 5 days at 22° C; control 100. How it is done: as §1
Test [6] deals with Colletotrichum gloeosporioides. The test can be described thus: Agar test (Example 7), Colletotrichum. It counts as cell-based. The following applies: 10 ppm; 5 days at 22° C; control 100. How it is done:
as §1

The subject of test [7] is Pythium ultimum. In words: Pythium ultimum infested compost soil, marrow peas (Example 2). Type of test: in vivo. The following applies: for Weight of fresh plant: 3 weeks; for Number of sound peas after 3 wks.: of 25 grains. From the text: Steamed compost soil was inoculated with mycelium of Pythium ultimum.
Test [8] concerns Fusarium oxysporum f. callistephi. The test can be described thus: Fusarium infested compost soil, Callistephus chinesis seedlings (Example 5). Type of test: in vivo. The following applies: of 4 seedlings. From the text:
Steamed compost soil was inoculated with a spore suspension of Fusarium oxysporum f. callistephi. After homogeneous mixture of the products with the infested soil, the products were present as 20% powder preparations, and after a waiting period of 8 days, there were set out per concentration 4 seedlings of Callistephus chinesis, master aster "Sun Ray" as host plants.

The mark [9] stands for this setting: 10 mg active ingr. per liter of soil.
The mark [10] stands for this setting: 20 mg active ingr. per liter of soil.
Where [11] appears, read: 30 mg active ingr. per liter of soil.
The mark [12] stands for this setting: 200 mg active ingr. per liter of soil.

Take `C[S+]([O-])c1nnc(CCl)s1` (stereo not shown) [Compound 2, 2-chloromethyl-5-methylsulfinyl-1,3,4-thiadiazole]: the minimal effective concentration in test [1] (20 to 23 days, 22°-25° C) was found to be 50 µg/mL.

Turning to `CC(C)[S+]([O-])c1nnc(C(Cl)Cl)s1` (stereo not shown) [Compound 6, 2-dichloromethyl-5-isopropylsulfinyl-1,3,4-thiadiazole], the minimal effective concentration in test [1] (20 to 23 days, 22°-25° C) amounted to 50 µg/mL.

Turning to `CCCCC[S+]([O-])c1nnc(C(Cl)Cl)s1` (stereo not shown) [Compound 7, 2-dichloromethyl-5-amylsulfinyl-1,3,4-thiadiazole], the “diameter of the colonies” value in test [2] is recorded as 0 mm; in test [3], 0 mm; in test [4], 22 mm; in test [5] it was 0 mm; in test [6], 0 mm. In addition, the minimal effective concentration in test [1] (20 to 23 days, 22°-25° C) is 50 µg/mL.

Take `CCC[S+]([O-])c1nnc(C(Cl)(Cl)Cl)s1` (stereo not shown) [Compound 10, 2-trichloromethyl-5-propylsulfinyl-1,3,4-thiadiazole]: the “diameter of the colonies” value in test [2], in test [3], in test [4], in test [5] and in test [6] was 0 mm each time. In addition, the minimal effective concentration in test [1] (20 to 23 days, 22°-25° C) amounted to 20 µg/mL.

On to `CC(C)[S+]([O-])c1nnc(C(Cl)(Cl)Cl)s1` (stereo not shown) [Compound 11, 2-trichloromethyl-5-isopropylsulfinyl-1,3,4-thiadiazole], for which the minimal effective concentration in test [1] (20 to 23 days, 22°-25° C) turned out to be 50 µg/mL.

As for `CCCC[S+]([O-])c1nnc(C(Cl)(Cl)Cl)s1` (stereo not shown) [Compound 12, 2-trichloromethyl-5-butylsulfinyl-1,3,4-thiadiazole], the “diameter of the colonies” value in test [2], in test [3], in test [4], in test [5] and in test [6] was 0 mm each time. Moreover, the minimal effective concentration in test [1] (20 to 23 days, 22°-25° C) was found to be 50 µg/mL.

`CCCCCCC[S+]([O-])c1nnc(C(Cl)(Cl)Cl)s1` (stereo not shown) [Compound 13, 2-trichloromethyl-5-heptylsulfinyl-1,3,4-thiadiazole]: the “diameter of the colonies” value in test [2] was 0 mm; in test [3], 0 mm; in test [4] it was 13 mm; in test [5], 0 mm; in test [6], 0 mm. Further, the minimal effective concentration in test [1] (20 to 23 days, 22°-25° C) was determined as 200 µg/mL.

For the molecule `CCCCCCCC[S+]([O-])c1nnc(C(Cl)(Cl)Cl)s1` (stereo not shown) [Compound 14, 2-trichloromethyl-5-octylsulfinyl-1,3,4-thiadiazole], the minimal effective concentration in test [1] (20 to 23 days, 22°-25° C) came to 100 µg/mL.

For `CS(=O)(=O)c1nnc(CCl)s1` [Compound 15, 2-chloromethyl-5-methylsulfonyl-1,3,4-thiadiazole], the “Weight of fresh plant” value in test [7] (setting [9]), in test [7] (setting [10]) and in test [7] (setting [11]) was 20 g in each case. The results for the “Number of sound peas after 3 wks.” value in test [7] (setting [9]), in test [7] (setting [10]) and in test [7] (setting [11]) were 22, 23 and 24, respectively. Also, the minimal effective concentration in test [1] (20 to 23 days, 22°-25° C) stood at 100 µg/mL.

Regarding `CC(C)S(=O)(=O)c1nnc(CCl)s1` [Compound 16, 2-chloromethyl-5-isopropylsulfonyl-1,3,4-thiadiazole], the minimal effective concentration in test [1] (20 to 23 days, 22°-25° C) turned out to be 200 µg/mL.

As to `CC(C)S(=O)(=O)c1nnc(C(Cl)Cl)s1` [Compound 20, 2-dichloromethyl-5-isopropylsulfonyl-1,3,4-thiadiazole], the minimal effective concentration in test [1] (20 to 23 days, 22°-25° C) was found to be 50 µg/mL.

As for `CS(=O)(=O)c1nnc(CBr)s1` [Compound 30, 2-bromomethyl-5-methylsulfonyl-1,3,4-thiadiazole], the results for the “Weight of fresh plant” value in test [7] (setting [9]), in test [7] (setting [10]) and in test [7] (setting [11]) were 18 g, 24 g and 18 g, respectively. Besides, the “Number of sound peas after 3 wks.” value in test [7] (setting [9]) is 21; in test [7] (setting [10]) it was 24; in test [7] (setting [11]), 22. Further, the minimal effective concentration in test [1] (20 to 23 days, 22°-25° C) was 150 µg/mL.

With `CCS(=O)(=O)c1nnc(CBr)s1` [Compound 31, 2-bromomethyl-5-ethylsulfonyl-1,3,4-thiadiazole], in test [1] (20 to 23 days, 22°-25° C), the minimal effective concentration was over 200 µg/mL.

Regarding `C[S+]([O-])c1nnc(CF)s1` (stereo not shown) [Compound 33, 2-fluoromethyl-5-methylsulfinyl-1,3,4-thiadiazole], in test [1] (20 to 23 days, 22°-25° C), the minimal effective concentration worked out at 20 µg/mL.

For `CS(=O)(=O)c1nnc(CF)s1` [Compound 34, 2-fluoromethyl-5-methylsulfonyl-1,3,4-thiadiazole], in test [1] (20 to 23 days, 22°-25° C), the minimal effective concentration came out at 30 µg/mL.

As for `C[S+]([O-])c1nnc(C(F)(F)F)s1` (stereo not shown) [Compound 35, 2-trifluoromethyl-5-methylsulfinyl-1,3,4-thiadiazole], the minimal effective concentration in test [1] (20 to 23 days, 22°-25° C) is 20 µg/mL.

With `CC[S+]([O-])c1nnc(C(F)(F)F)s1` (stereo not shown) [Compound 36, 2-trifluoromethyl-5-ethylsulfinyl-1,3,4-thiadiazole], the minimal effective concentration in test [1] (20 to 23 days, 22°-25° C) came out at 20 µg/mL.

Consider `CC(C)C[S+]([O-])c1nnc(C(F)(F)F)s1` (stereo not shown) [Compound 37, 2-trifluoromethyl-5-isobutylsulfinyl-1,3,4-thiadiazole], for which the minimal effective concentration in test [1] (20 to 23 days, 22°-25° C) stood at 100 µg/mL.

As to `CCCCC[S+]([O-])c1nnc(C(F)(F)F)s1` (stereo not shown) [Compound 38, 2-trifluoromethyl-5-pentylsulfinyl-1,3,4-thiadiazole], the minimal effective concentration in test [1] (20 to 23 days, 22°-25° C) was found to be 40 µg/mL.

`CCCCCC[S+]([O-])c1nnc(C(F)(F)F)s1` (stereo not shown) [Compound 39, 2-trifluoromethyl-5-hexylsulfinyl-1,3,4-thiadiazole]: the minimal effective concentration in test [1] (20 to 23 days, 22°-25° C) was determined as 40 µg/mL.

For the molecule `CCS(=O)(=O)c1nnc(C(F)(F)F)s1` [Compound 40, 2-trifluoromethyl-5-ethylsulfonyl-1,3,4-thiadiazole], in test [1] (20 to 23 days, 22°-25° C), the minimal effective concentration worked out at 20 µg/mL.

For the molecule `CC(C)S(=O)(=O)c1nnc(C(F)(F)F)s1` [Compound 41, 2-trifluoromethyl-5-isopropylsulfonyl-1,3,4-thiadiazole], in test [1] (20 to 23 days, 22°-25° C), the minimal effective concentration was 20 µg/mL.

For the molecule `CC(C)CS(=O)(=O)c1nnc(C(F)(F)F)s1` [Compound 42, 2-trifluoromethyl-5-isobutylsulfonyl-1,3,4-thiadiazole], the minimal effective concentration in test [1] (20 to 23 days, 22°-25° C) turned out to be 100 µg/mL.

`CCCCCCS(=O)(=O)c1nnc(C(F)(F)F)s1` [Compound 43, 2-trifluoromethyl-5-hexylsulfonyl-1,3,4-thiadiazole]: the minimal effective concentration in test [1] (20 to 23 days, 22°-25° C) is 50 µg/mL.

As to `CCCCCCCS(=O)(=O)c1nnc(C(F)(F)F)s1` [Compound 44, 2-trifluoromethyl-5-heptylsulfonyl-1,3,4-thiadiazole], the minimal effective concentration in test [1] (20 to 23 days, 22°-25° C) turned out to be 50 µg/mL.

On to `CS(=O)(=O)c1nnc(C(F)(F)C(F)(F)F)s1` [Compound 45, 2-pentafluoroethyl-5-methylsulfonyl-1,3,4-thiadiazole], for which the minimal effective concentration in test [1] (20 to 23 days, 22°-25° C) is over 100 µg/mL.

In the case of `CS(=O)(=O)c1nnc(C(F)(F)C(F)(F)C(F)(F)F)s1` [Compound 46, 2-heptafluoropropyl-5-methylsulfonyl-1,3,4-thiadiazole], in test [1], the minimal effective concentration came to 100 µg/mL.

Consider `CC(Cl)(Cl)c1nnc(S(C)(=O)=O)s1` [Compound 47, 2-(1,1-dichloroethyl)-5-methylsulfonyl-1,3,4-thiadiazole], for which the minimal effective concentration in test [1] (20 to 23 days, 22°-25° C) is 50 µg/mL.

Turning to `CCC(Cl)c1nnc([S+](C)[O-])s1` (stereo not shown) [Compound 48, 2-(1-chloropropyl)-5-methylsulfinyl-1,3,4-thiadiazole], the minimal effective concentration in test [1] (20 to 23 days, 22°-25° C) stood at 100 µg/mL.

As to `CCC(Cl)c1nnc(S(C)(=O)=O)s1` (stereo not shown) [Compound 49, 2-(1-chloropropyl)-5-methylsulfonyl-1,3,4-thiadiazole], the minimal effective concentration in test [1] (20 to 23 days, 22°-25° C) worked out at 50 µg/mL.

For the molecule `CC(Br)c1nnc(S(C)(=O)=O)s1` (stereo not shown) [Compound 50, 2-(1-bromoethyl)-5-methylsulfonyl-1,3,4-thiadiazole], the minimal effective concentration in test [1] (20 to 23 days, 22°-25° C) was determined as 100 µg/mL.

In the case of `CC(C)C(Br)c1nnc(S(C)(=O)=O)s1` (stereo not shown) [Compound 51, 2-(1-bromisobutyl)-5-methylsulfonyl-1,3,4-thiadiazole], the minimal effective concentration in test [1] (20 to 23 days, 22°-25° C) worked out at 50 µg/mL.

In the case of `O=C1C2CC=CCC2C(=O)N1SC(Cl)(Cl)Cl` (stereo not shown) [N-(trichloromethylthio)-cyclohex-4-ene-1,2-dicarboximide, reference compound], the “Weight of fresh plant” value in test [7] (setting [12]) came out at 6 g. For the same molecule, the “Number of sound peas after 3 wks.” value in test [7] (setting [12]) amounted to 13. The minimal effective concentration in test [1] came to 300 µg/mL. Also, the “Number of attacked plants after 3 weeks” value in test [8] (50 mg active ingredient per liter of soil), in test [8] (100 mg active ingredient per liter of soil) and in test [8] (200 mg active ingredient per liter of soil) was 4 throughout.
